Results from patent US7357991B2, “Soluble compound and organic electroluminescent devices” (Idemitsu Kosan Co., Ltd., priority 2001, dated 2008).

Test: Solubility in organic solvents
Format: physicochemical
Conditions: in each of toluene, xylene, N-methylpyrrolidone, γ-butyrolactone, 1,3-dimethyl-2-imidazoline, carbitol acetate, butylcarbitol acetate, dichloromethane, dichloroethane, chlorobenzene and isopropyl alcohol
Description: Examples of the distyrylarylene derivative represented by general formula (1) of the present invention will be shown in the following. However, the distyrylarylene derivative of the present invention is not limited to the compounds shown as the examples. In the following, C5 means n-pentyl group. The compounds shown in the following as the examples are all dissolved into 1,2-dichloroethane at 20° C. in an amount of 0.5% by weight or more.
In the same procedures as those conducted in Example 1, 4,4″-bis(2,2-diphenylethenyl)-9′,10′-diphenylanthracene was used in place of Compound (A1) and attempted to be dissolved in organic solvents, which were toluene, xylene, N-methylpyrrolidone, γ-butyrolactone, 1,3-dimethyl-2-imidazoline, carbitol acetate, butylcarbitol acetate, dichloromethane, dichloroethane, chlorobenzene and isopropyl alcohol. However, this compound was hardly soluble in these solvents since the solubility was smaller than 0.01% by weight in all of these solvents, and no device could be prepared.

solubility: smaller than 0.01 % by weight
SMILES: C(=C(c1ccccc1)c1ccccc1)c1ccc(-c2c3ccccc3c(-c3ccc(C=C(c4ccccc4)c4ccccc4)cc3)c3ccccc23)cc1 [4,4″-bis(2,2-diphenylethenyl)-9′,10′-diphenylanthracene]
